Measurements reported in PMC12529164, “Design, Synthesis, Structure–Activity Relationships, and Preliminary Anticancer Properties of Menthol-Modified Coumarin Esters and 3,4-Dihydrocoumarin Derivatives” (ACS Omega, 2025).

How the values were obtained:
HaCaT = experiment: MTT cytotoxicity assay, normal cells; type: cell-based; settings: HaCaT, 72 h, human immortal keratinocytes (normal cells)
Method: The human primary (SW480) and metastatic (SW620) colon cancer, metastatic prostate cancer (PC3), breast adenocarcinoma (MDA-MB-231) and human immortal keratinocyte (HaCaT) cell lines were recruited from the American Type Culture Collection (ATCC). The cells were cultured in the recommended medium according to protocols (RPMI 1640 for PC3, MEM for SW480 and SW620, as well as DMEM for MDA-MB-231 and HaCaT cells) with addition of 10% FBS, penicillin (100 U/mL), and streptomycin (100 μg/mL) and cultured in 37 °C/5% CO2 in a humidified incubator. Then, the cells were passaged at a confluence of 80–90% by a treatment with 0.25% trypsin (Gibco Life Technologies) and used for studies.
They were added to 96-well plates with seeded normal and cancer cells (1 × 10^4 cells per well) and incubated for 72 h. MTT analysis was performed according to a previous study.

Danio rerio larvae = experiment: In vivo toxicity, maximum tolerated concentration; settings: zebrafish larvae, immersion from 96 hpf for 18 h (120 hpf), 5-150 μM tested
Method: Zebrafish (Danio rerio, strain AB) was maintained at the Experimental Medicine Center, Medical University of Lublin, Poland. Embryos and larvae up to 120 h postfertilization (hpf) were kept under generally accepted environmental conditions, i.e., in incubators at 28.5 °C, with 14/10 h light/dark cycles. The embryos of the Zebrafish were harvested after the natural reproduction process.
Three compounds showing low IC50 values determined on cancer lines in in vitro tests (2b, 4a) and compound 1a characterized by low cytotoxicity were used for in vivo tests. We also conducted research for coumarin. These compounds were dissolved in dimethyl sulfoxide (DMSO) (Sigma-Aldrich, St. Louis, MO, USA) and diluted in the zebrafish medium (pH 7.1–7.3; 5.0 mM NaCl, 0.17 mM KCl, 0.33 mM CaCl2, 0.33 mM MgSO4) to achieve a final DMSO concentration of 1% w/v. Twenty-four hpf zebrafish embryos were investigated under a light microscope, and […] fertilized embryos (n = 60) were selected and transferred into 48-well plates (5 embryos per well). Larvae were incubated in 1 mL of the zebrafish medium for up to 3 days after fertilization.
On the fourth day postfertilization (96 hpf), the larvae (10 individuals per group) were incubated in solutions of coumarin or its three derivatives (1a, 2b, 4a) at selected concentrations (5, 10, 25, 50, 75, 100, 150 μM), along with control solutions: negative control (zebrafish medium) and solvent control (1% DMSO in zebrafish medium). The maximum tolerated concentration (MTC) was calculated to assess the toxicity of the compounds and extracts. […] Larvae were individually inspected under a microscope for signs of acute locomotor dysfunction, including a weak reaction to light tail stimulation with a fine needle, disrupted posture, body deformities, protruding eyes, slowed or absent heartbeat, and mortality.

## CC(C)[C@@H]1CC[C@@H](C)C[C@H]1OC(=O)C1C(=O)Oc2ccccc2C1P(=O)(c1ccccc1)c1ccccc1 (mixture of isomers) [Compound 4a, (1R,2S,5R)-2-Isopropyl-5-methylcyclohexyl-4-(diphenylphosphoryl)-2-oxochromane-3-carboxylate]
HaCaT
  IC50: 15.1 ± 2.76 µM
Danio rerio larvae
  maximum tolerated concentration (MTC): 75 µM
